Patent US6420535B1, “6-O-carbamate ketolide derivatives” (Abbott Laboratories, priority 1999, dated 2002)
≈ marks a conversion by molar mass, not a printed value.

Columns and labels:
Type in all cases: cell-based
[1] = test system: Candida albicans CCH 442; assay: In vitro antibacterial MIC, agar dilution (BHI agar); details: 35-37° C., 20 to 24 hours, unit assumed
Experimental: (§1) Representative compounds of the present invention were assayed in vitro for antibacterial activity as follows: Twelve petri dishes containing successive aqueous dilutions of the test compound mixed with 10 mL of sterilized Brain Heart Infusion (BHI) agar (Difco 0418-01-5) were prepared. Each plate was inoculated with 1:100 (or 1:10 for slow-growing strains, such as Micrococcus and Streptococcus) dilutions of up to 32 different microorganisms, using a Steers replicator block. The inoculated plates were incubated at 35-37° C. for 20 to 24 hours. In addition, a control plate, using BHI agar containing no test compound, was prepared and incubated at the beginning and end of each test.
(§2) An additional plate containing a compound having known susceptibility patterns for the organisms being tested and belonging to the same antibiotic class as the test compound was also prepared and incubated as a further control, as well as to provide test-to-test comparability. Erythromycin A was used for this purpose.
(§3) After incubation, each plate was visually inspected. The minimum inhibitory concentration (MIC) was defined as the lowest concentration of drug yielding no growth, a slight haze, or sparsely isolated colonies on the innoculum spot as compared to the growth control. The results of this assay, which relate to the antibacterial activity of the compounds of the invention, are reported below in Table 1.

[2] = test system: Escherichia coli JUHL; assay: as above; details: 35-37° C., 20 to 24 hours, unit assumed
Experimental: as §1, §2, §3

[3] = test system: Escherichia coli SS; assay: as above; details: 35-37° C., 20 to 24 hours, unit assumed
Experimental: as §1, §2, §3

[4] = test system: Micrococcus luteus ATCC 4698; assay: as above; details: 35-37° C., 20 to 24 hours, unit assumed
Experimental: as §1, §2, §3

[5] = test system: Mycobacterium smegmatis ATCC 114; assay: as above; details: 35-37° C., 20 to 24 hours, unit assumed
Experimental: as §1, §2, §3

[6] = test system: Nocardia asteroides ATCC997O; assay: as above; details: 35-37° C., 20 to 24 hours, unit assumed
Experimental: as §1, §2, §3

[7] = test system: Staphylococcus aureus 1775; assay: as above; details: 35-37° C., 20 to 24 hours, unit assumed
Experimental: as §1, §2, §3

[8] = test system: Staphylococcus aureus A-5278; assay: as above; details: 35-37° C., 20 to 24 hours, unit assumed
Experimental: as §1, §2, §3

[9] = test system: Staphylococcus aureus A5177; assay: as above; details: 35-37° C., 20 to 24 hours, unit assumed
Experimental: as §1, §2, §3

[10] = test system: Staphylococcus aureus ATCC 6538P; assay: as above; details: 35-37° C., 20 to 24 hours, unit assumed
Experimental: as §1, §2, §3

[11] = test system: Staphylococcus aureus NCTC10649M; assay: as above; details: 35-37° C., 20 to 24 hours, unit assumed
Experimental: as §1, §2, §3

[12] = test system: Staphylococcus epidermidis 3519; assay: as above; details: 35-37° C., 20 to 24 hours, unit assumed
Experimental: as §1, §2, §3

[13] = test system: Streptococcus agalactiae CMX 508; assay: as above; details: 35-37° C., 20 to 24 hours, unit assumed
Experimental: as §1, §2, §3

[14] = test system: Streptococcus bovis A-5169; assay: as above; details: 35-37° C., 20 to 24 hours, unit assumed
Experimental: as §1, §2, §3

[15] = test system: Streptococcus pyogenes 930; assay: as above; details: 35-37° C., 20 to 24 hours, unit assumed
Experimental: as §1, §2, §3

[16] = test system: Streptococcus pyogenes EES61; assay: as above; details: 35-37° C., 20 to 24 hours, unit assumed
Experimental: as §1, §2, §3

[17] = test system: Streptococcus pyogenes PIU 2548; assay: as above; details: 35-37° C., 20 to 24 hours, unit assumed
Experimental: as §1, §2, §3

[18] = test system: Escherichia coli DC-2; assay: as above; details: 35-37° C., 20 to 24 hours, unit assumed
Experimental: as §1
(§4) An additional plate containing a compound having known susceptibility patterns for the organisms being tested and belonging to the same antibiotic class as the test compound was also prepared and incubated as a further control, as well as to provide test-to-test comparability.
(§5) After incubation, each plate was visually inspected. The minimum inhibitory concentration (MIC) was defined as the lowest concentration of drug yielding no growth, a slight haze, or sparsely isolated colonies on the innoculum spot as compared to the growth control.

[19] = test system: Haemophilis influenzae DILL AMP R; assay: Separate in vitro antibacterial assay (H. Influenza / S. Pneumonia); details: protocol as for Table 1, unit assumed
Experimental: as §1, §2, §3
(§6) In a separate assay representative compounds of the invention were assayed in vitro for antibacterial activity against H. Influenza Dill AMP R strain and S. Pneumonia, according to the protocol described above. The results of this assay, which relate to the antibacterial activity of compounds of the invention against the H. Influenza Dill AMP R and S. Pneumonia organisms, are shown below in Table 2.

[20] = test system: Streptococcus pneumonia 5649; assay: as above; details: protocol as for Table 1, unit assumed
Experimental: as §1, §2, §3, §6

[21] = test system: Streptococcus pneumonia ATCC63O3; assay: as above; details: protocol as for Table 1, unit assumed
Experimental: as §1, §2, §3, §6

[22] = test system: Streptococcus pneumonia GYR 1171; assay: as above; details: protocol as for Table 1, unit assumed
Experimental: as §1, §2, §3, §6

[23] = test system: Streptococcus pneumonia 5979; assay: as above; details: protocol as for Table 1, unit assumed
Experimental: as §1, §4, §5

[24] = test system: Micrococcus luteus ATCC 9341; assay: In vitro antibacterial MIC, agar dilution (BHI agar); details: 35-37° C., 20 to 24 hours, unit assumed
Experimental: as §1, §2, §3

[25] = test system: Staphylococcus aureus CMX 553; assay: as above; details: 35-37° C., 20 to 24 hours, unit assumed
Experimental: as §1, §2, §3

[26] = test system: Staphylococcus aureus CMX 642A; assay: as above; details: 35-37° C., 20 to 24 hours, unit assumed
Experimental: as §1, §2, §3

Row | Structure (SMILES) | MIC [1] | MIC [2] | MIC [3] | MIC [4] | MIC [5] | MIC [6] | MIC [7] | MIC [8] | MIC [9] | MIC [10] | MIC [11] | MIC [12] | MIC [13] | MIC [14] | MIC [15] | MIC [16] | MIC [17] | MIC [18] | MIC (antibacterial activity, Table 2) [19] | MIC (antibacterial activity, Table 2) [20] | other results
1 | CCC1OC(=O)C(C)C(=O)C(C)C(OC2OC(C)CC(N(C)C)C2O)C(C)(OC(=O)NC(=O)c2ccccc2)CC(C)C(=NO)C(C)C2OC(=O)OC12C (centres unmarked) [Ex. 1, Compound of Formula (IV-A): wherein A is —O—; X is N—OH; —M— is Absent, R^2 is Phenyl; and R^p is Hydrogen] | > 100 µg/mL | 50 µg/mL | 0.39 µg/mL | 0.39 µg/mL | 50 µg/mL | 0.78 µg/mL | > 100 µg/mL | > 100 µg/mL | 0.39 µg/mL | 0.39 µg/mL | 0.39 µg/mL | 0.39 µg/mL | 0.02 µg/mL | 0.02 µg/mL | > 100 µg/mL | 0.02 µg/mL | 1.56 µg/mL | 100 µg/mL | 8 µg/mL | 2 µg/mL | MIC (antibacterial activity, Table 2) [21]: 0.03 µg/mL; MIC (antibacterial activity, Table 2) [22]: 0.03 µg/mL; MIC (antibacterial activity, Table 2) [23]: > 64 µg/mL
2 | CC[C@H]1OC(=O)[C@H](C)[C@@H](O[C@H]2C[C@@](C)(OC)[C@@H](O)[C@H](C)O2)[C@H](C)[C@@H](O[C@@H]2O[C@H](C)C[C@H](N(C)C)[C@H]2O)[C@](C)(O)C[C@@H](C)C(=O)[C@H](C)[C@@H](O)[C@]1(C)O [Ery. A, Erythromycin A, reference compound] | > 100 µg/mL | > 100 µg/mL | 0.78 µg/mL (≈ 1.06 µM) | 0.2 µg/mL (≈ 0.273 µM) | 3.1 µg/mL (≈ 4.22 µM) | 0.1 µg/mL (≈ 0.136 µM) | > 100 µg/mL | > 100 µg/mL | 3.1 µg/mL (≈ 4.22 µM) | 0.2 µg/mL (≈ 0.273 µM) | 0.39 µg/mL (≈ 0.531 µM) | 0.39 µg/mL (≈ 0.531 µM) | 0.05 µg/mL (≈ 0.0681 µM) | 0.02 µg/mL (≈ 0.0273 µM) | > 100 µg/mL | 0.05 µg/mL (≈ 0.0681 µM) | 6.2 µg/mL (≈ 8.45 µM) | > 100 µg/mL | 4 µg/mL (≈ 5.45 µM) | 16 µg/mL (≈ 21.8 µM) | MIC [24]: 0.05 µg/mL (≈ 0.0681 µM); MIC [25]: 0.39 µg/mL (≈ 0.531 µM); MIC [26]: 0.39 µg/mL (≈ 0.531 µM); MIC (antibacterial activity, Table 2) [21]: 0.06 µg/mL (≈ 0.0818 µM); MIC (antibacterial activity, Table 2) [22]: 0.06 µg/mL (≈ 0.0818 µM)
3 | CCC1OC(=O)C(C)C(=O)C(C)C(OC2OC(C)CC(N(C)C)C2O)C(C)(OC(N)=O)CC(C)C(=NO)C(C)C2OC(=O)OC12C (centres unmarked) [Ex. 2, Compound of Formula (II-A), wherein A is —O—; X is N—OH; —M— is Absent; R^2 is Hydrogen, and R^p is Hydrogen] | > 100 µg/mL | > 100 µg/mL | 1.56 µg/mL | 1.56 µg/mL | 50 µg/mL | 6.2 µg/mL | > 100 µg/mL | > 100 µg/mL | 3.1 µg/mL | 1.56 µg/mL | 1.56 µg/mL | 1.56 µg/mL | 0.39 µg/mL | 0.2 µg/mL | > 100 µg/mL | 0.39 µg/mL | 3.1 µg/mL | > 100 µg/mL | 8 µg/mL | 8 µg/mL | MIC (antibacterial activity, Table 2) [21]: 0.25 µg/mL; MIC (antibacterial activity, Table 2) [22]: 0.25 µg/mL; MIC (antibacterial activity, Table 2) [23]: > 128 µg/mL
